Target: T1, PICK1 (Rattus norvegicus, UniProt Q9EP80)
T1 construct: Full length rat PICK1 (pET41) was prepared as described earlier; inferred from pET41 vector and Glutathione-Sepharose capture) (N, cleaved yes); made in house; host or cells: E. coli BL21-DE3-pLysS
Assay: Fluorescence polarization competition binding to recombinant PICK1
Protocol: Full length rat PICK1 (pET41) was prepared as described earlier (Madsen et al., 2005). In brief, PICK1 was expressed in BL21-DE3-pLysS cells and grown at 37° C., induced at OD600=0.6 with 1 mM Isopropyl β-D-1-thiogalactopyranoside (IPTG) and grown 16 hrs at 20° C. Cultures were harvested and re-suspended in 50 mM trisaminomethane (Tris), 125 mM NaCl, 2 mM Dithiothreitol (DTT, Sigma), 1% Triton X-100 (Sigma), 20 μg/mL DNAse 1 and 1⁄2 a tablet cOmplete protease inhibitor cocktail (Roche) pr. 1 L culture. The re-suspended pellets were frozen at -80° C. for later purification. […] Each column was sealed and 0.075 U/μL, Novagen® was added for cleavage 0/N at 4° C. under gentle rotation. PICK1 was eluted on ice and absorption at 280 nm was measured on TECAN plate reader or on a NanoDrop3000. The protein concentration was determined using lambert beers law (A=ε[…]=32320 (cm*mol/L)^-1. Fluorescence polarization: Fluorescence polarization was carried out in competition mode at a fixed concentration of protein and tracer (5[…], 5 nM or 5[…], 20 nM), against an increasing concentration of indicated unlabelled peptide. The plate was incubated for 2 hours on ice in a black half-area Corning Black non-binding surface 96-well plate. The fluorescence polarization was measured directly on an Omega POLARstar plate reader using excitation filter at 488 nm and long pass emission filter at 535 nm. The data was plotted using GraphPad Prism 8.3, and fitted to the One site competition, to extract Ki,app value.

T1 sequence (Q9EP80 whole entry): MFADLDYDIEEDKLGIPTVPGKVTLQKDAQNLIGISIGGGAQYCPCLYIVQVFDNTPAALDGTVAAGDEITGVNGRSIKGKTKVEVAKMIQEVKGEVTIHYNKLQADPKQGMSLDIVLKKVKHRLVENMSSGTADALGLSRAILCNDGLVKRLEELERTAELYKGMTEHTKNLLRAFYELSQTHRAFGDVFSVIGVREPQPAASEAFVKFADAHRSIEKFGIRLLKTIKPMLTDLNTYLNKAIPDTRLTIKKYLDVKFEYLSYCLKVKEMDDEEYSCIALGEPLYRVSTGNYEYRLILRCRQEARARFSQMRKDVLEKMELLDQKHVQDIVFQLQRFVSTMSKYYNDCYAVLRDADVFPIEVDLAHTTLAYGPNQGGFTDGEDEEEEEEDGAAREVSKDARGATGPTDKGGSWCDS

In the case of `CCCCCCCCCCCCCC(=O)N(CCOCCOCCC(=O)N[C@@H](Cc1c[nH]cn1)C(=O)N[C@@H](Cc1c[nH]c2ccccc12)C(=O)N[C@@H](CC(C)C)C(=O)N[C@@H](CCCCN)C(=O)N[C@H](C(=O)O)C(C)C)CCOCCOCCC(=O)N[C@@H](Cc1c[nH]cn1)C(=O)N[C@@H](Cc1c[nH]c2ccccc12)C(=O)N[C@@H](CC(C)C)C(=O)N[C@@H](CCCCN)C(=O)N[C@H](C(=O)O)C(C)C` [myr-NPEG4-(HWLKV)2], the “affinity increase compared to HWLKV” value (FP competition) is reported as greater than 1000 fold, the “affinity increase compared to NPEG4-(HWLKV)2” value (FP competition) is reported as greater than 50 fold and the Ki (tracer 5FAM-NPEG4-(HWLKV)2 5 nM or 5FAM-HWLKV 20 nM (vs HWLKV), 2 hours on ice, read-out: Ki,app) is reported as 3 nM.

Source: patent US20230346948A1, “Lipid conjugated peptide inhibitors of PICK1” (University of Copenhagen, priority 2020, published 2023)
